Source: patent US9650372B2, “Molecules having pesticidal utility, and intermediates, compositions, and processes, related thereto” (priority 2015, dated 2017)

Key:
[1] = tested on: Cabbage Looper (Trichoplusia ni, TRIPNI); experiment: Bioassay on Cabbage Looper (CL), 128-well diet tray assay; format: in vivo; settings: 168 h, 50 μg/cm^2 on artificial diet, second instar larvae, 25° C., five to seven days, average of eight wells, read-out: CL % Control (or Mortality) rating
Experimental: (§1) Certain molecules disclosed in this document were tested against BAW and CL using procedures described in the following examples. In the reporting of the results, the “BAW & CL Rating Table” was used (See Table Section).
Bioassays on CL were conducted using a 128-well diet tray assay. One to five second instar CL larvae were placed in each well (3 mL) of the diet tray that had been previously filled with 1 mL of artificial diet to which 50 μg/cm^2 of the test molecule (dissolved in 50 μL of 90:10 acetone-water mixture) had been applied (to each of eight wells) and then allowed to dry. Trays were covered with a clear self-adhesive cover, vented to allow gas exchange, and held at 25° C., 14:10 light-dark for five to seven days. Percent mortality was recorded for the larvae in each well; activity in the eight wells was then averaged. The results are indicated in the table entitled “Table ABC: Biological Results” (See Table Section).

[2] = tested on: Beet Armyworm (Spodoptera exigua, LAPHEG); experiment: Bioassay on Beet Armyworm (BAW), 128-well diet tray assay; format: in vivo; settings: 168 h, 50 μg/cm^2 on artificial diet, second instar larvae, 25° C., five to seven days, average of eight wells, read-out: BAW % Control (or Mortality) rating
Experimental: as §1
Bioassays on BAW were conducted using a 128-well diet tray assay. One to five second instar BAW larvae were placed in each well (3 mL) of the diet tray that had been previously filled with 1 mL of artificial diet to which 50 μg/cm^2 of the test molecule (dissolved in 50 μL of 90:10 acetone-water mixture) had been applied (to each of eight wells) and then allowed to dry. Trays were covered with a clear self-adhesive cover, vented to allow gas exchange, and held at 25° C., 14:10 light-dark for five to seven days. Percent mortality was recorded for the larvae in each well; activity in the eight wells was then averaged. The results are indicated in the table entitled “Table ABC: Biological Results” (See Table Section).

| SMILES | mortality at 50 µg/cm2 [1] [%] | mortality at 50 µg/cm2 [2] [%] |
| --- | --- | --- |
| CC(C)c1ccccc1N1C(=O)CS/C1=N\C(=O)Nc1ccc(-c2ncn(Cc3ccc(C(F)(F)F)cc3)n2)cc1 [Molecule F3, (Z)-1-(3-(2-Isopropylphenyl)-4-oxothiazolidin-2-ylidene)-3-(4-(1-(4-(trifluoromethyl)benzyl)-1H-1,2,4-triazol-3-yl)phenyl)urea] | 50 to 100 | 0 to 50 |
| Cc1ccc(C(C)C)c(N2C(=O)CS/C2=N\C(=O)Nc2ccc(-c3ncn(CCc4ccc(OC(F)(F)F)cc4)n3)cc2)c1 [Molecule F1, (Z)-1-(3-(2-isopropyl-5-methylphenyl)-4-oxothiazolidin-2-ylidene)-3-(4-(1-(4-(trifluoromethoxy)phenethyl)-1H-1,2,4-triazol-3-yl)phenyl)urea] | 50 to 100 | 50 to 100 |
| CC(C)c1ccccc1N1C(=O)CS/C1=N\C(=O)Nc1ccc(-c2ncn(CCCC(F)(F)C(F)(F)F)n2)cc1 [Molecule F2, (Z)-1-(3-(2-Isopropylphenyl)-4-oxothiazolidin-2-ylidene)-3-(4-(1-(4,4,5,5,5-pentafluoropentyl)-1H-1,2,4-triazol-3-yl)phenyl)urea] | 50 to 100 | 50 to 100 |
| CC(C)c1ccccc1N1C(=O)CS/C1=N\C(=O)Nc1ccc(-c2ncn(CCC(F)(F)C(F)(F)C(F)(F)F)n2)cc1 [Molecule F5, (Z)-1-(4-(1-(3,3,4,4,5,5,5-heptafluoropentyl)-1H-1,2,4-triazol-3-yl)phenyl)-3-(3-(2-isopropylphenyl)-4-oxothiazolidin-2-ylidene)urea] | 50 to 100 | 50 to 100 |
| CC(C)c1ccccc1N1C(=O)CS/C1=N\C(=O)Nc1ccc(-c2ncn(CCCCC(F)(F)F)n2)cc1 [Molecule F4, (Z)-1-(3-(2-Isopropylphenyl)-4-oxothiazolidin-2-ylidene)-3-(4-(1-(5,5,5-trifluoropentyl)-1H-1,2,4-triazol-3-yl)phenyl)urea] | 50 to 100 | 50 to 100 |
